Peptide text beside a SMILES is read from it.
Columns and labels:
Assay type in all cases: biochemical
[1] = biological target: T1, HDAC2 (Homo sapiens, UniProt Q92769); experiment: HDAC2 inhibition, full IC50 measurement (Reaction Biology; fluorogenic p53 peptide RHKK(Ac)AMC)
T1 construct: purchased Reaction Biology Corporation (assay run by the CRO)
Outline: (§1)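 Deacetylation of 50 μM RHKK(Ac)AMC is measured after 1 h at 30 °C in pH 8.0 Tris buffer (1% DMSO, 1 mg/ml BSA). Developer ends the reaction; the post-plateau 360/460 nm signal is fitted to IC50, averaging replicate measurements.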

[2] = biological target: T2, HDAC1 (Homo sapiens, UniProt Q13547); experiment: HDAC1 inhibition, full IC50 measurement (Reaction Biology; fluorogenic p53 peptide RHKK(Ac)AMC); details: t1/t2 replicates
T2 construct: purchased Reaction Biology Corporation (assay run by the CRO)
Outline: as §1

[3] = biological target: T3, HDAC8 (Homo sapiens, UniProt Q9BY41); experiment: HDAC8 inhibition, full IC50 measurement (Reaction Biology; fluorogenic p53 peptide RHKK(Ac)AMC); details: t1/t2 replicates
T3 construct: purchased Reaction Biology Corporation (assay run by the CRO)
T3 sequence (Q9BY41 1-377): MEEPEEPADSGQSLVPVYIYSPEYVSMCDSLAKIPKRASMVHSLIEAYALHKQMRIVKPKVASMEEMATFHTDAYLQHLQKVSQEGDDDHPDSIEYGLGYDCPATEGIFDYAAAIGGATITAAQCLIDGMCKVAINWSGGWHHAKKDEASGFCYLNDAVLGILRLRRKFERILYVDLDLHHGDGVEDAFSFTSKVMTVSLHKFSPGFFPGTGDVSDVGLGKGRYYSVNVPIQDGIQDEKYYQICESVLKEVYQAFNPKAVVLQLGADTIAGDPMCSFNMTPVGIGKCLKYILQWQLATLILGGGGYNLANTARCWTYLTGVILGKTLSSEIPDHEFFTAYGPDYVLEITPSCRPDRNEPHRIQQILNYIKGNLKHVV
Outline: as §1

[4] = peptide conc. 1.00E-05 M, listed as des3.1.0_t1
[5] = peptide conc. 1.00E-05 M, listed as des3.1.0_t2
[6] = peptide conc. 1.11E-06 M, listed as des3.1.0_t1
[7] = peptide conc. 1.11E-06 M, listed as des3.1.0_t2
[8] = peptide conc. 1.23E-07 M, listed as des3.1.0_t1
[9] = peptide conc. 1.23E-07 M, listed as des3.1.0_t2
[10] = peptide conc. 1.37E-08 M, listed as des3.1.0_t1
[11] = peptide conc. 1.37E-08 M, listed as des3.1.0_t2
[12] = peptide conc. 1.52E-09 M, listed as des3.1.0_t1
[13] = peptide conc. 1.52E-09 M, listed as des3.1.0_t2
[14] = peptide conc. 3.33E-06 M, listed as des3.1.0_t1
[15] = peptide conc. 3.33E-06 M, listed as des3.1.0_t2
[16] = peptide conc. 3.70E-07 M, listed as des3.1.0_t1
[17] = peptide conc. 3.70E-07 M, listed as des3.1.0_t2
[18] = peptide conc. 4.12E-08 M, listed as des3.1.0_t1
[19] = peptide conc. 4.12E-08 M, listed as des3.1.0_t2
[20] = peptide conc. 4.57E-09 M, listed as des3.1.0_t1
[21] = peptide conc. 4.57E-09 M, listed as des3.1.0_t2
[22] = peptide conc. 5.08E-10 M, listed as des3.1.0_t1
[23] = peptide conc. 5.08E-10 M, listed as des3.1.0_t2

T2 sequence (Q13547 whole entry): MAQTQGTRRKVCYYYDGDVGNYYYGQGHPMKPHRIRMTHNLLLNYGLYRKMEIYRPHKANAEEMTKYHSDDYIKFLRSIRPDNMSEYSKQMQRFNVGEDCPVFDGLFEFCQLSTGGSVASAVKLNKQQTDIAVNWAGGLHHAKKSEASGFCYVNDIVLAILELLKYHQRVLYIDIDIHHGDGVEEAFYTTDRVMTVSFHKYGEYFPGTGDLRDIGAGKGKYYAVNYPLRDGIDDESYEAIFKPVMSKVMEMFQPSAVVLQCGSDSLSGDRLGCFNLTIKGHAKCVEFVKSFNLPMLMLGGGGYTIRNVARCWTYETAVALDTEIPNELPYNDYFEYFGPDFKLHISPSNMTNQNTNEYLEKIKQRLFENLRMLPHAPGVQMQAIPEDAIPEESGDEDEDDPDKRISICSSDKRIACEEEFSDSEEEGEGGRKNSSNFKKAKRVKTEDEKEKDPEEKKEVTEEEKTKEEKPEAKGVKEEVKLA
T1 sequence (Q92769 whole entry): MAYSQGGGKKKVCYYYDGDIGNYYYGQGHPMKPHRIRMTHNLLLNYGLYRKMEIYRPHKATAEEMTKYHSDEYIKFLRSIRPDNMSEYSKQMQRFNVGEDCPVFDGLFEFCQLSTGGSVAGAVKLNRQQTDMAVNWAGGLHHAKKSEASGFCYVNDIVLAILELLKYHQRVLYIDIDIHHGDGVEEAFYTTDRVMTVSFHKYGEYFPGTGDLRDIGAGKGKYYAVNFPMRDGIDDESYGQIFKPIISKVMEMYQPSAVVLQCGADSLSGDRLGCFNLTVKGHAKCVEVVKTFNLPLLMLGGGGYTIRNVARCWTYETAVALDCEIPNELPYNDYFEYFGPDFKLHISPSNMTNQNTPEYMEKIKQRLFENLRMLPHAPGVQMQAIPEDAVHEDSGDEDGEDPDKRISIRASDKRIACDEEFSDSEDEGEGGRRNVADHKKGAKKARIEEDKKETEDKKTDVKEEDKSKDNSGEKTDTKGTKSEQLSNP

N=C(N)NCCC[C@H]1NC(=O)[C@@H]2CCCN2C(=O)[C@H](CO)NC(=O)[C@@H](Cc2c[nH]cn2)NC(=O)[C@H](CCCCCS)NC(=O)[C@H](CCCCN)NC(=O)[C@H](Cc2ccc(O)cc2)NC(=O)[C@H]2CCCN2C(=O)[C@@H](CCC(N)=O)NC1=O [des3.1.0, SHA-dHis-Ser-Pro-dArg-dGln-dPro-Tyr-Lys] (HELM PEPTIDE1{K.[O=C([C@H](CCCCCS)N[*:1])[*:2]].[dH].S.P.[dR].[dQ].[dP].Y}$PEPTIDE1,PEPTIDE1,1:R1-9:R2$$$V2.0)
HDAC2 activity raw data (signal) ([1]; Conc. 1.00E-05 M, t1): 59408
HDAC2 activity raw data (signal) ([1]; Conc. 1.00E-05 M, t2): 72667
HDAC2 activity raw data (signal) ([1]; Conc. 1.11E-06 M, t1): 433904
HDAC2 activity raw data (signal) ([1]; Conc. 1.11E-06 M, t2): 343376
HDAC2 activity raw data (signal) ([1]; Conc. 1.23E-07 M, t1): 657996
HDAC2 activity raw data (signal) ([1]; Conc. 1.23E-07 M, t2): 873444
HDAC2 activity raw data (signal) ([1]; Conc. 1.37E-08 M, t1): 729280
HDAC2 activity raw data (signal) ([1]; Conc. 1.37E-08 M, t2): 826208
HDAC2 activity raw data (signal) ([1]; Conc. 1.52E-09 M, t1): 589537
HDAC2 activity raw data (signal) ([1]; Conc. 1.52E-09 M, t2): 821627
HDAC2 activity raw data (signal) ([1]; Conc. 3.33E-06 M, t1): 217345
HDAC2 activity raw data (signal) ([1]; Conc. 3.33E-06 M, t2): 176595
HDAC2 activity raw data (signal) ([1]; Conc. 3.70E-07 M, t1): 565181
HDAC2 activity raw data (signal) ([1]; Conc. 3.70E-07 M, t2): 599514
HDAC2 activity raw data (signal) ([1]; Conc. 4.12E-08 M, t1): 715436
HDAC2 activity raw data (signal) ([1]; Conc. 4.12E-08 M, t2): 918076
HDAC2 activity raw data (signal) ([1]; Conc. 4.57E-09 M, t1): 697486
HDAC2 activity raw data (signal) ([1]; Conc. 4.57E-09 M, t2): 737052
HDAC2 activity raw data (signal) ([1]; Conc. 5.08E-10 M, t1): 616136
HDAC2 activity raw data (signal) ([1]; Conc. 5.08E-10 M, t2): 674996
HDAC1 activity raw data (signal) [2, 4]: 22305
HDAC1 activity raw data (signal) [2, 5]: 40732
HDAC1 activity raw data (signal) [2, 6]: 248828
HDAC1 activity raw data (signal) [2, 7]: 188355
HDAC1 activity raw data (signal) [2, 8]: 589648
HDAC1 activity raw data (signal) [2, 9]: 563314
HDAC1 activity raw data (signal) [2, 10]: 723592
HDAC1 activity raw data (signal) [2, 11]: 777320
HDAC1 activity raw data (signal) [2, 12]: 783325
HDAC1 activity raw data (signal) [2, 13]: 856547
HDAC1 activity raw data (signal) [2, 14]: 76346
HDAC1 activity raw data (signal) [2, 15]: 86885
HDAC1 activity raw data (signal) [2, 16]: 352482
HDAC1 activity raw data (signal) [2, 17]: 387684
HDAC1 activity raw data (signal) [2, 18]: 725312
HDAC1 activity raw data (signal) [2, 19]: 693516
HDAC1 activity raw data (signal) [2, 20]: 787632
HDAC1 activity raw data (signal) [2, 21]: 874002
HDAC1 activity raw data (signal) [2, 22]: 778120
HDAC1 activity raw data (signal) [2, 23]: 831348
HDAC8 activity raw data (signal) [3, 4]: 177071
HDAC8 activity raw data (signal) [3, 5]: 217357
HDAC8 activity raw data (signal) [3, 6]: 702584
HDAC8 activity raw data (signal) [3, 7]: 678372
HDAC8 activity raw data (signal) [3, 8]: 829409
HDAC8 activity raw data (signal) [3, 9]: 942877
HDAC8 activity raw data (signal) [3, 10]: 914161
HDAC8 activity raw data (signal) [3, 11]: 1065224
HDAC8 activity raw data (signal) [3, 12]: 932207
HDAC8 activity raw data (signal) [3, 13]: 1002240
HDAC8 activity raw data (signal) [3, 14]: 396779
HDAC8 activity raw data (signal) [3, 15]: 364112
HDAC8 activity raw data (signal) [3, 16]: 821171
HDAC8 activity raw data (signal) [3, 17]: 831364
HDAC8 activity raw data (signal) [3, 18]: 888545
HDAC8 activity raw data (signal) [3, 19]: 997244
HDAC8 activity raw data (signal) [3, 20]: 750196
HDAC8 activity raw data (signal) [3, 21]: 946901
HDAC8 activity raw data (signal) [3, 22]: 807432
HDAC8 activity raw data (signal) [3, 23]: 990498

— PMC8185074, “Anchor extension: a structure-guided approach to design cyclic peptides targeting enzyme active sites” (Nature Communications, 2021)
